Test results reported in patent US9676728B2, “2-benzyl-benzimidazole complement factor B inhibitors and uses thereof” (Novartis AG, priority 2013, dated 2017).

What follows are molecules tested against human complement factor B (CVF-Bb complex) (Homo sapiens (Human), UniProt P00751) (assay: biochemical).
Description: CVF-Bb complex prepared from purified cobra venom factor (1 μM), recombinant human complement factor B (expressed in drosophila cells and purified using standard methods) and human complement factor D (expressed in E. Coli, refolded and purified using standard methods). CVF-Bb complex at 3 nM concentration was incubated with test compound at various concentrations for 1 hour at room temperature in PBS pH 7.4 containing 10 mM MgCl2 and 0.05% (w/v) CHAPS. Human complement C3 substrate purified from plasma was added to a final concentration of 1 μM. After 1 hour incubation at room temperature, the enzyme reaction was stopped by addition of a cocktail of concentrated pan-protease inhibitors. The product of the reaction, C3a, was quantified by means of an enzyme-linked-immunosorbent assay.

With COc1cc(C)cc(C)c1C(O)c1nc2cc(C#N)ccc2[nH]1 (racemic) [Example 1-C, (±)-2-(Hydroxy(2-methoxy-4,6-dimethylphenyl)methyl)-1H-benzo[d]imidazole-5-carbonitrile] as the molecule, how does the IC50 read?
Its IC50 is 5.75 µM.

Which IC50 does the source give for COc1cc(C)cc(C)c1C(C)(O)c1nc2cc(C#N)ccc2[nH]1 (racemic) [Example 2-C, (±)-2-(1-Hydroxy-1-(2-methoxy-4,6-dimethylphenyl)ethyl)-1H-benzo[d]imidazole-5-carbonitrile] here?
The IC50 was 1.45 µM.

For COc1cc(C)cc(C)c1C(O)(c1nc2cc(C#N)ccc2[nH]1)C(F)(F)F (racemic) [Example 3-B, (±)-2-(2,2,2-Trifluoro-1-hydroxy-1-(2-methoxy-4,6-dimethylphenyl)ethyl)-1H-benzo[d]imidazole-5-carbonitrile], which IC50 is on record?
Its IC50 is 0.39 µM.

Which IC50 does the source give for CNC(c1nc2cc(C#N)ccc2[nH]1)(c1ccc(C)cc1OC)C(F)(F)F (racemic) [Example 6-A, (±)-2-(2,2,2-Trifluoro-1-(2-methoxy-4-methylphenyl)-1-(methylamino)ethyl)-1H-benzo[d]imidazole-5-carbonitrile] here?
Its IC50 is 0.38 µM.

Which IC50 does the source give for CNC(c1nc2cc(C#N)ccc2[nH]1)(c1c(OC)cc(C)c(Cl)c1C)C(F)(F)F (racemic) [Example 6-B, (±)-2-(1-(3-Chloro-6-methoxy-2,4-dimethylphenyl)-2,2,2-trifluoro-1-(methylamino)ethyl)-1H-benzo[d]imidazole-5-carbonitrile] here?
Its IC50 is 1.98 µM.

How did the IC50 turn out when CNC(c1nc2cc(C#N)ccc2[nH]1)(c1c(C)cccc1OC)C(F)(F)F (racemic) [Example 6-C, (±)-2-(2,2,2-Trifluoro-1-(2-methoxy-6-methylphenyl)-1-(methylamino)ethyl)-1H-benzo[d]imidazole-5-carbonitrile] was run?
The IC50 was 3.13 µM.

COc1cc(C)cc(C)c1C(N)(c1nc2cc(C#N)ccc2[nH]1)C(F)(F)F (racemic) [Example 6-D, (±)-2-(1-Amino-2,2,2-trifluoro-1-(2-methoxy-4,6-dimethylphenyl)ethyl)-1H-benzo[d]imidazole-5-carbonitrile] was tested. Which IC50 did it give?
The IC50 was 1.57 µM.

Which IC50 does the source give for COc1cc(C)cc(C)c1C(N)c1nc2cc(C#N)ccc2[nH]1 (racemic) [Example 7-D, (±)-2-(Amino(2-methoxy-4,6-dimethylphenyl)methyl)-1H-benzo[d]imidazole-5-carbonitrile] here?
The IC50 was 8.7 µM.

Which IC50 does the source give for COc1cc(C)cc(C)c1C(C)(N)c1nc2cc(C#N)ccc2[nH]1 (racemic) [Example 8-B, (±)-2-(1-Amino-1-(2-methoxy-4,6-dimethylphenyl)ethyl)-1H-benzo[d]imidazole-5-carbonitrile] here?
The IC50 was 6.9 µM.

COc1cc(C)cc(C)c1C(N)(c1nc2cc(C#N)ccc2[nH]1)C1CC1 (racemic) [Example 9-C, (±)-2-(Amino(cyclopropyl)(2-methoxy-4,6-dimethylphenyl)methyl)-1H-benzo[d]imidazole-5-carbonitrile] was tested. Which IC50 did it give?
Its IC50 is 1.5 µM.

How did the IC50 turn out when CNC(c1nc2cc(C#N)ccc2[nH]1)c1c(OC)cc(C)cc1OC (racemic) [Example 12-D (A), (±)-2-((2,6-Dimethoxy-4-methylphenyl)(methylamino)methyl)-1H-benzo[d]imidazole-5-carbonitrile] was run?
The IC50 was 13.9 µM.

Which IC50 does the source give for CNC(c1nc2cc(C#N)ccc2[nH]1)(c1c(OC)cc(C)cc1OC)C(F)(F)F (racemic) [Example 12-D (B), (±)-2-(1-(2,6-dimethoxy-4-methylphenyl)-2,2,2-trifluoro-1-(methylamino)ethyl)-1H-benzo[d]imidazole-5-carbonitrile] here?
The IC50 was 11.1 µM.

Each molecule was assayed against Recombinant human factor B (Homo sapiens (Human), UniProt P00751) (assay: Human Complement Factor B TR-FRET Assay (displacement of Cy5-labeled ligand)).
Chain of Recombinant human factor B (P00751 26-764): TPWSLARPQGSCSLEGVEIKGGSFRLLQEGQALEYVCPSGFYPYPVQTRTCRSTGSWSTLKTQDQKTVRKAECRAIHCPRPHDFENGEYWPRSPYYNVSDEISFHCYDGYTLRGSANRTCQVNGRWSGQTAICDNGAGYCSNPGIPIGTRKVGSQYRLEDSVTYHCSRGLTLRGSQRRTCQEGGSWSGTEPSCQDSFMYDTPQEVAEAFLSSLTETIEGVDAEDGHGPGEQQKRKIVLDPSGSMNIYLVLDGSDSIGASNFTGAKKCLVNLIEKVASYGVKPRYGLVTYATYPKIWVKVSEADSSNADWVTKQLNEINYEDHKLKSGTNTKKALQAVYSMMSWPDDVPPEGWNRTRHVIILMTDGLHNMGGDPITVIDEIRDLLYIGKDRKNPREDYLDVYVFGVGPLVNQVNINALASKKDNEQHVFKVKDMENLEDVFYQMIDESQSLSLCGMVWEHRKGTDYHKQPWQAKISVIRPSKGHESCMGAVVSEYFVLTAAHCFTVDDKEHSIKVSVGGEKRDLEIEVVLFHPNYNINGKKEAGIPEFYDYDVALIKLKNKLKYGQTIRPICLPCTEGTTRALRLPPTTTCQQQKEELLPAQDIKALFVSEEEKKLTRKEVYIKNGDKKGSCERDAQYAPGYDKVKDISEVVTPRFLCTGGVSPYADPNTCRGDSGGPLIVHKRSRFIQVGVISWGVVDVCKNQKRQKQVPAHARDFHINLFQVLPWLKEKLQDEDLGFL

COc1cc(C)c(Br)c(C)c1C(O)(c1nc2cc(C#N)ccc2[nH]1)C(F)(F)F (racemic) [Example 4, (±)-2-(1-(3-bromo-6-methoxy-2,4-dimethylphenyl)-2,2,2-trifluoro-1-hydroxyethyl)-1H-benzo[d]imidazole-5-carbonitrile] was tested. Which IC50 did it give?
The IC50 was 98.9 µM.

For CNC(c1nc2cc(C#N)ccc2[nH]1)(c1c(OC)cc(C)c(Br)c1C)C(F)(F)F (racemic) [Example 6-E, (±)-2-(1-(3-Bromo-6-methoxy-2,4-dimethylphenyl)-2,2,2-trifluoro-1-(methylamino)ethyl)-1H-benzo[d]imidazole-5-carbonitrile], which IC50 is on record?
The IC50 was 7 µM.

Which IC50 does the source give for COc1cc(C)cc(C)c1C(OCC(N)=O)(c1nc2cc(C#N)ccc2[nH]1)C(F)(F)F (racemic) [Example 10-C, (±)-2-(1-(5-Cyano-1H-benzo[d]imidazol-2-yl)-2,2,2-trifluoro-1-(2-methoxy-4,6-dimethylphenyl)ethoxy)acetamide] here?
Its IC50 is 0.47 µM.
